Data: paper PMC11078746 (Nature, 2024)

Tests used:
logD / logP = format: physicochemical; settings: 1-octanol/water, pH 7.4, 1-octanol and water at pH 7.4
Rat PK = format: in vivo
Protocol: PK parameters were determined by non-compartmental analysis. Intravenous bolus studies in mouse, rat and dog were performed at 1, 1 and 0.1 mg per kg respectively (Extended Data Table 1).

logD (logD / logP): 2.9
Rat PK, oral bioavailability (F) (Rat PK): 20 % F
Structure (SMILES): CCc1c(N2CCN(C(=O)c3ncccc3O)CC2)c(=O)n2nc(C3=CCOCC3)nc2n1CC(=O)Nc1ccc(C(F)(F)F)cc1C [compound 3]
